In US10260068B2, “Prophylactic agent and therapeutic agent for fibrodysplasia ossificans progressiva” (Sumitomo Dainippon Pharma Co., Ltd., priority 2014, dated 2019):

Legend:
SMAD1/5/8 = SMAD1/5/8 phosphorylation by Western blotting in gene-corrected clone derived cells; type: cell-based, human; conditions: 10 and 100 ng/mL activin A or 100 ng/mL BMP-7, 60 minutes
Description: Mesenchymal stem cell-like cells from a patient iPS cell line and a gene-corrected iPS cell clone were each prepared by the same method as Example 1. Culturing was conducted for 60 minutes with addition of 10 ng/mL and 100 ng/mL of human activin A or 100 ng/mL of human BMP-7 to the mesenchymal stem cell-like cells. The cells were then solubilized with 300 μL of a dissolving solution (70 mM Tris-HCl buffer solution, pH 6.8, 11.2% glycerol, 3% sodium dodecyl sulfate), and a cell extract was prepared. The amount of phosphorylated SMAD1/5/8 and the amount of total SMAD1/5/8 in the obtained cell extract were quantified by Western blotting. As the primary antibody for phosphorylated SMAD1/5/8 there was used rabbit anti-phosphorylated SMAD1/5/8 antibody [product of Cell Signaling Tech., trade name: Phospho-Smad1 (Ser463/465)/Smad5 (Ser463/465)/Smad8 (Ser426/428) Antibody (Rabbit)], and as the primary antibody for total SMAD1/5/8 there was used rabbit anti-total SMAD1/5/8 antibody [product of Santa Cruz Biotechnology, trade name: Smad1/5/8 Antibody (N-18)-R (Rabbit)]. The secondary antibody used was horseradish peroxidase conjugated anti-rabbit antibody (product of Cell Signaling Tech., trade name: Anti-rabbit IgG, HRP-linked Antibody). […]

[1] = test system: FOP patient derived cells; experiment: Differentiation to chondrocytes (Alcian blue, sulfated glycosaminoglycan assay) of FOP patient derived cells; type: cell-based, human; conditions: for cartilage induction (sulfated glycosaminoglycan assay): 100 ng/mL activin A, vs untreated group
Description: Mesenchymal stem cell-like cells from a patient iPS cell line and a gene-corrected iPS cell clone were each prepared by the same method as Example 1. The mesenchymal stem cell-like cells were cultured for 6 days under the medium conditions used in the method of Umeda et al. (Sci. Rep., 2012, 2, 455), for differentiation to chondrocytes. During differentiation, 100 ng/mL of human activin A, 100 ng/mL of human BMP-7 or 1 ng/mL of human TGF-β3 (product of R&D Systems, Inc., trade name: Recombinant Human TGF-beta 3) was added and the effect of each factor on differentiation to chondrocytes was examined. The extent of differentiation to chondrocytes was measured with Alcian blue dye and a sulfated glycosaminoglycan assay kit (product of Biocolor, Ltd., trade name: Blyscan Glycosaminoglycan Assay Kit). In FIG. 4, the bar graph indicates the mean values for each treated group, and the error bars represent S.D.

[2] = FOP patient derived cells, 100 ng/mL BMP-7 or 1 ng/mL TGF-β3, 6 days

Molecule | phosphorylation of SMAD1/5/8 (SMAD1/5/8) | sulfated glycosaminoglycan production in FOP patient derived cells compared to gene-corrected cells ([1]; 100 ng/mL, 6 days) [fold] | cartilage induction (sulfated glycosaminoglycan assay) [1, 2] | differentiation to chondrocytes (Alcian blue staining) ([1]; FOP patient derived cells, 100 ng/mL, 6 days) | cartilage induction effect compared to the effect exhibited by activin A on FOP patient derived cells ([1]; 100 ng/mL BMP-7 or 1 ng/mL TGF-β3, 6 days)
human activin A: Recombinant Human/Mouse/Rat Activin A (R&D Systems); homodimer of inhibin βA chains | no phosphorylation of SMAD1/5/8 was induced | 4 | very notably enhances | notably enhances | 
BMP-7: Recombinant Human BMP-7 (R&D Systems); cytokine of the BMP family (protein) STGSKQRSQNRSKTPKNQEALRMANVAENSSSDQRQACKKHELYVSFRDLGWQDWIIAPEGYAAYYCEGECAFPLNSYMNATNHAIVQTLVHFINPETVPKPCCAPTQLNAISVLYFDDSSNVILKKYRNMVVRACGCH | occurred |  | significantly enhanced |  | weaker
